We go through 2 sequences from paper PMC5036048, “Rational improvement of gp41-targeting HIV-1 fusion inhibitors: an innovatively designed Ile-Asp-Leu tail with alternative conformations” (Scientific Reports, 2016).

Ends that are not written are not given here. Where only a bound is given, the exact number is not on record here.

Assay [1] deals with HIV-1 92TH009 (subtype A/E, R5). As to the kind of experiment: Inhibition of HIV-1 clinical strain infection of M7 cells, p24 antigen ELISA. Type of assay: cell-based. The protocol: (§1) Inhibition activities of peptides on infection by HIV-1 clinical strains were determined as previously described. For inhibition of HIV-1 92TH009 (subtype A/E, R5) and 92UG024 (subtype D, X4) infection,100 TCID50 of the virus was added to 1 × 10^5/ml M7 cells in RPMI 1640 medium containing 10% FBS in the presence or absence of the test peptide overnight. Then, the culture supernatants were changed to fresh media. On the fourth day post-infection, culture supernatants were collected for detection of p24 antigen by ELISA. The percent inhibition of p24 production was calculated using the computer program Calcusyn.

The subject of assay [2] is T2635-resistant strain N126K. The class given is cell-based, HIV-1. The settings on record: triplicate, repeated twice, mean ± SD, read-out: IC50 (nM) against N126K. From the text: (§2) Table 2 Inhibitory activities of CP, CP-IDL and T20 against T2635 or T20 resistant strains. | column: IC50 (nM) of / CP; IC50 (nM) of / CP-IDL; IC50 (nM) of / T20
The test system of assay [3] is WT (T20-resistant strain panel). The class given is cell-based, HIV-1. Particulars: triplicate, repeated twice, mean ± SD, read-out: IC50 (nM) against WT.
Description: as §2

Assay [4] concerns WT (T2635-resistant strain panel). The class given is cell-based, HIV-1. The settings on record: triplicate, repeated twice, mean ± SD, read-out: IC50 (nM) against WT.
Description: as §2

In assay [5] the test system is T2635-resistant strain N113E. Type of assay: cell-based, HIV-1. Particulars: triplicate, repeated twice, mean ± SD, read-out: IC50 (nM) against N113E.
Description: as §2

The test system of assay [6] is T20-resistant strain N42T, N43K. The class given is cell-based, HIV-1. The settings on record: triplicate, repeated twice, mean ± SD, read-out: IC50 (nM) against N42T, N43K.
Description: as §2

For assay [7], the system named is T2635-resistant strain Q66R, N126K. The class given is cell-based, HIV-1. The settings on record: triplicate, repeated twice, mean ± SD, read-out: IC50 (nM) against Q66R, N126K.
Description: as §2

The subject of assay [8] is T2635-resistant strain K154Q. Type of assay: cell-based, HIV-1. The settings on record: triplicate, repeated twice, mean ± SD, read-out: IC50 (nM) against K154Q.
Description: as §2

For the next assay, the system named is CRF02_AG/A1 clone 280. Type of assay: cell-based, HIV-1. The settings on record: subtype AG/A1, R5, Tier 2; triplicate, repeated twice, mean ± SD; read-out: IC50 (nM) against CRF02_AG/A1 clone 280. From the text:
(§3) Table 1 Inhibitory activities of CP, CP-IDL and T20 against HIV-1 pseudovirus. | column: IC50 (nM) of / CP; IC50 (nM) of / CP-IDL; IC50 (nM) of / T20

A further assay relates to CRF02_AG clone 242. The class given is cell-based, HIV-1. The settings on record: subtype AG, R5, Tier 1; triplicate, repeated twice, mean ± SD; read-out: IC50 (nM) against CRF02_AG clone 242.
Description: as §3

The next assay deals with SF162.LS. The class given is cell-based, HIV-1. The settings on record: subtype B, R5, Tier 1; triplicate, repeated twice, mean ± SD; read-out: IC50 (nM) against SF162.LS.
Description: as §3

A further assay relates to BG505.W6M.ENV.C2. The class given is cell-based, HIV-1. Particulars: subtype A; triplicate, repeated twice, mean ± SD; read-out: IC50 (nM) against BG505.W6M.ENV.C2.
Description: as §3

For a further assay, the system named is ZM109F.PB4. The class given is cell-based, HIV-1. The settings on record: subtype C, R5; triplicate, repeated twice, mean ± SD; read-out: IC50 (nM) against ZM109F.PB4.
Description: as §3

A further assay has as its system pCH119 env. The class given is cell-based, HIV-1. Particulars: subtype BC, R5, Tier 2; triplicate, repeated twice, mean ± SD; read-out: IC50 (nM) against pCH119 env.
Description: as §3

For the next assay, the system named is B1206.W6P.ENV.A1. Type of assay: cell-based, HIV-1. The settings on record: subtype A; triplicate, repeated twice, mean ± SD; read-out: IC50 (nM) against B1206.W6P.ENV.A1.
Description: as §3

Another assay relates to BJ412.W6M.ENV.S3. The class given is cell-based, HIV-1. Particulars: subtype C; triplicate, repeated twice, mean ± SD; read-out: IC50 (nM) against BJ412.W6M.ENV.S3.
Description: as §3

The subject of another assay is CRF02_AG clone 278. The class given is cell-based, HIV-1. Particulars: subtype AG, R5, Tier 3; triplicate, repeated twice, mean ± SD; read-out: IC50 (nM) against CRF02_AG clone 278.
Description: as §3

The test system of the next assay is CRF02_AG clone 33. Type of assay: cell-based, HIV-1. Particulars: subtype AG, R5, Tier 3; triplicate, repeated twice, mean ± SD; read-out: IC50 (nM) against CRF02_AG clone 33.
Description: as §3

In a further assay the test system is MJ412.W0M.ENV.B1. Type of assay: cell-based, HIV-1. The settings on record: subtype C; triplicate, repeated twice, mean ± SD; read-out: IC50 (nM) against MJ412.W0M.ENV.B1.
Description: as §3

Assay [9] concerns HIV-1 92UG024 (subtype D, X4). Type of assay: cell-based. As for the experimental part:
as §1

WEEWDKKIEEYTKKIEELIKKSQNQQ [CP]: the IC50 in assay [1] (M7 cells, 100 TCID50 virus, peptide overnight, p24 ELISA on day 4 post-infection) is 281 nM; in assay [2], 462 ± 44 nM; in assay [3] it was 181 ± 16 nM; in [4], 195 ± 12 nM; in [5] it was 297 ± 22 nM; in assay [6] it was greater than 500 nM. For the same sequence, the IC50 in assay [7] was greater than 500 nM; in assay [8], greater than 500 nM; with CRF02_AG/A1 clone 280 it was 213 ± 14 nM; with CRF02_AG clone 242 it was 61.2 ± 13 nM; in the assay with SF162.LS, 78.8 ± 11 nM; with BG505.W6M.ENV.C2, 26.5 ± 8.6 nM. Besides, the IC50 with ZM109F.PB4 was 63.4 ± 4.6 nM; with pCH119 env, 42.3 ± 2.9 nM; in the assay on B1206.W6P.ENV.A1 it was greater than 2000 nM; in the assay on BJ412.W6M.ENV.S3, 51.9 ± 12 nM; in the assay on CRF02_AG clone 278, 44.4 ± 13 nM; with CRF02_AG clone 33 it was 111 ± 4.8 nM. The IC50 turned out to be 46 ± 3.2 nM with MJ412.W0M.ENV.B1 and 208 nM in assay [9] (M7 cells, 100 TCID50 virus, peptide overnight, p24 ELISA on day 4 post-infection, read-out: IC50, inhibition of HIV-1 92UG024 infection).

Take WEEWDKKIEEYTKKIEELIKKSQNQQIDL [CP-IDL]: the “Activity stronger than that of T20” value amounted to 24 fold in assay [1] (92TH009) and 12 fold in assay [9] (92UG024, ratio of IC50 to T20). The “Increase of potency over CP” value in assay [1] (92TH009, ratio of IC50 to CP) is on record as 109 fold; in assay [9] (92UG024, ratio of IC50 to CP), 55 fold. Besides, the IC50 was determined as 46.4 ± 16 nM in assay [2]; 8.67 ± 1.6 nM in [3]; 10.8 ± 1.2 nM in assay [4]; 7.99 ± 3.5 nM in assay [5]; 382 ± 82 nM in assay [6]; 302 ± 34 nM in assay [7]. Besides, the IC50 in assay [8] stood at 9.79 ± 2.9 nM; with CRF02_AG/A1 clone 280 it was 5.62 ± 1.2 nM; with CRF02_AG clone 242, 6.24 ± 3.7 nM; in the assay with SF162.LS, 1.51 ± 0.4 nM; in the assay with BG505.W6M.ENV.C2 it was 8.61 ± 2.8 nM; in the assay on ZM109F.PB4, 2.93 ± 1.2 nM. For the same sequence, the IC50 in the assay with pCH119 env stood at 5.79 ± 1.1 nM; in the assay on B1206.W6P.ENV.A1, 74.5 ± 12 nM; in the assay with BJ412.W6M.ENV.S3, 1.21 ± 0.1 nM; in the assay with CRF02_AG clone 278 it was 8.59 ± 2.4 nM; in the assay on CRF02_AG clone 33, 2.82 ± 0.5 nM; in the assay on MJ412.W0M.ENV.B1 it was 2.24 ± 1.3 nM.
